The target of one data set is T1, PKG1β (h) (Homo sapiens, UniProt Q13976).
T1 construct: purchased Eurofins Pharma Discovery Services UK Ltd (contract assay service)
T1 sequence (Q13976 1-686 isoform Q13976-2): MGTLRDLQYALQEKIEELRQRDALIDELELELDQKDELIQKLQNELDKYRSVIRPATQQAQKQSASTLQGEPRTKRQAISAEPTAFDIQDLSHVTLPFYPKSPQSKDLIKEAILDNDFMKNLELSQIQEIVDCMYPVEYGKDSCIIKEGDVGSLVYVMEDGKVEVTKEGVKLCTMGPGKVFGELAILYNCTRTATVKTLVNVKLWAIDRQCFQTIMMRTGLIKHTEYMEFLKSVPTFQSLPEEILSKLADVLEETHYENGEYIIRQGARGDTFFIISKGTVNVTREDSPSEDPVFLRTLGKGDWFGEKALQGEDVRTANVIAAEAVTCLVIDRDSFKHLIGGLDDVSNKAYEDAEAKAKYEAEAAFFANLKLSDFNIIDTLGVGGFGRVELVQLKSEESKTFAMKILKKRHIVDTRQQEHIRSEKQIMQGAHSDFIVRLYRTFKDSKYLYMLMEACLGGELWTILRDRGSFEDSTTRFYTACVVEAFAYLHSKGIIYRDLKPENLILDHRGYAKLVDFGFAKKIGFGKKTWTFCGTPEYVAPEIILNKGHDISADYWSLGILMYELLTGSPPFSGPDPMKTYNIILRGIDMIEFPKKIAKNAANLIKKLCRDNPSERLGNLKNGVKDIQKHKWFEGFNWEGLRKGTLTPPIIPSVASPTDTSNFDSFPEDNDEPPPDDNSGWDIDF
Put plainly: PKG1β kinase activity assay, cell free. Type of data set: biochemical. The procedure: (§1) The capacity of test peptides to inhibit the activity of the kinases PKG1α, PKG1β, and Src family kinases in a cell free assay was assessed. The test peptides were amidated at their C-terminal end (indicated by “—NH2”) unless otherwise noted. Kinase activity assays were conducted by Eurofins Pharma Discovery Services UK Ltd (Dundee Technology Park, Dundee, United Kingdom) and Reaction Biology Corp. (Malvern, Pa., USA).
(§2) All test peptides are prepared to 50× final assay concentration in 100% DMSO. This working stock of the test compound is added to assay wells as the first component in the reaction, followed by the remaining components of the respective assay protocols described below. There is no pre-incubation step between the test peptide and the kinase prior to initiation of the reaction. The kinases are diluted in buffer (20 mM MOPS, 1 mM EDTA, 0.01% Brij-35, 5% Glycerol, 0.1% β-mercaptoethanol, 1 mg/mL BSA) prior to addition to the reaction mix.
(§3) Positive control wells contain all components of the reaction, except the test peptide of interest. However, DMSO (at a final concentration of 2%) is included in positive control wells to control for solvent effects. Negative control wells contain all components of the reaction, with a reference inhibitor (staurosporine) replacing the test peptide. This abolishes kinase activity and establishes a base-line (0% kinase activity). Kinase assay protocols (Eurofins Pharma Discovery Services UK Ltd, Dundee Technology Park, Dundee, United Kingdom) are described below. Of the Src family kinases, only the assay protocol for c-Src is shown.
PKG1b(h) is incubated with 8 mM MOPS pH 7.0, 0.2 mM EDTA, 10 μM cGMP, 200 μM RRRLSFAEPG, 10 mM magnesium acetate and [γ-^33P]-ATP (specific activity approx. 500 cpm/pmol, concentration as required). The reaction is initiated by the addition of the MgATP mix. After incubation for 40 minutes at room temperature, the reaction is stopped by the addition of 3% phosphoric acid solution. A 10 μL aliquot of the reaction is then spotted onto a P30 filtermat and washed three times for 5 mins in 75 mM phosphoric acid and once in methanol prior to drying and scintillation counting.

In another data set the target is T2, c-Src (h) (Homo sapiens, UniProt P12931).
T2 construct: purchased Eurofins Pharma Discovery Services UK Ltd (contract assay service)
Put plainly: c-Src kinase activity assay, cell free. The class given is biochemical. The procedure:
as §1, §2, §3
c-Src (h) is incubated with 8 mM MOPS pH 7.0, 0.2 mM EDTA, 250 μM KVEKIGEGTYGVVYK (Cdc2 peptide), 10 mM MgAcetate and [γ-^33P]-ATP (specific activity approx. 500 cpm/pmol, concentration as required). The reaction is initiated by the addition of the MgATP mix. After incubation for 40 minutes at room temperature, the reaction is stopped by the addition of 3% phosphoric acid solution. A 10 μL aliquot of the reaction is then spotted onto a P30 filtermat and washed three times for 5 minutes in 75 mM phosphoric acid and once in methanol prior to drying and scintillation counting.

A further data set has as its target T3, PKG1α (h) (Homo sapiens, UniProt Q13976).
T3 construct: purchased Eurofins Pharma Discovery Services UK Ltd (contract assay service)
T3 sequence (Q13976 1-671): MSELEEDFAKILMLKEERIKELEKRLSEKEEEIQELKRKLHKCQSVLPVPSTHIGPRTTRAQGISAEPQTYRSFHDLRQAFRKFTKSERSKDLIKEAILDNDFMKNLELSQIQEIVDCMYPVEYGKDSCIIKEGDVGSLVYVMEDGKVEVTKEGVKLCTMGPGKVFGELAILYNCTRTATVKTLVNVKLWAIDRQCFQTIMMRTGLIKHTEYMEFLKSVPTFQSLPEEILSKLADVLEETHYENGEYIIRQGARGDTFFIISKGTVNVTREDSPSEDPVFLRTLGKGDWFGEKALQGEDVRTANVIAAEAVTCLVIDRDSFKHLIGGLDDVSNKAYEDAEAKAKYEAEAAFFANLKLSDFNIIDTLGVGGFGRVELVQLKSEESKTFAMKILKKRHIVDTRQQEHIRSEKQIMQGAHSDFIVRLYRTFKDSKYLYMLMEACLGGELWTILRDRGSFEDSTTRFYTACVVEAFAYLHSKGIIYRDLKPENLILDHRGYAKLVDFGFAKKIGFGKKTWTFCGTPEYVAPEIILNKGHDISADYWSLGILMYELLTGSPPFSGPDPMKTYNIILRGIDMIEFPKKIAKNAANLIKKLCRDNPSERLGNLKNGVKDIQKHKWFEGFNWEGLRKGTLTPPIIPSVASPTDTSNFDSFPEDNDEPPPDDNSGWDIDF
Put plainly: PKG1α kinase activity assay, cell free. The class given is biochemical. The procedure:
as §1, §2, §3
PKG1α (h) is incubated with 8 mM MOPS pH 7.0, 0.2 mM EDTA, 10 μM cGMP, 200 μM peptide RRRLSFAEPG, 10 mM magnesium acetate and [γ-^33P]-ATP (specific activity approx. 500 cpm/pmol, concentration as required). The reaction is initiated by the addition of the MgATP mix. After incubation for 40 minutes at room temperature, the reaction is stopped by the addition of 3% phosphoric acid solution. A 10 μL aliquot of the reaction is then spotted onto a P30 filtermat and washed three times for 5 mins in 75 mM phosphoric acid and once in methanol prior to drying and scintillation counting.

Data set [1] is described as follows: Resistance to simulated gastric fluid. The class given is in vitro ADME. The procedure:
Test 14 Arg peptides consisting of 14 contiguous L- or D-arginine amino acids were tested for resistance to simulated gastric fluid (porcine pepsin in a HCl and NaCl solution) at a pH of 2.01 for a period of 24 hours. Negligible degradation of each peptide was observed by exposure to the simulated gastric fluid over the 24 hour test period.

Data set [2] concerns CFA-injected mice. Put plainly: Grip strength testing in CFA study. Type of data set: in vivo, C57Bl/6 mice. To be noted: intra-peritoneal, CFA study. The procedure:
Forepaw grip strength was determined using a grip strength meter (DFIS-2 series digital force gauge, Columbus Instruments, Columbus, Ohio). The animals' forelimbs were placed on a horizontal bar connected to a force gauge. The animal was the gently pulled away from the bar and the peak force required for a release was recorded. Each mouse was tested 3 times, with a 1 min inter-trial interval (Martinez-Huenchullan, S. F., et al., “Utility and reliability of non-invasive muscle function tests in high-fat-fed mice”. Experimental Physiology, 2017. 102(7): p. 773-778). The average peak tension (g), and tension normalised to body weight were compared.

The test system of data set [3] is CFA-injected mice. The data set can be described thus: CFA inflammatory pain model, incapacitance testing.

“Also recorded” adds a separate entry of the source.

T2 sequence (P12931 whole entry): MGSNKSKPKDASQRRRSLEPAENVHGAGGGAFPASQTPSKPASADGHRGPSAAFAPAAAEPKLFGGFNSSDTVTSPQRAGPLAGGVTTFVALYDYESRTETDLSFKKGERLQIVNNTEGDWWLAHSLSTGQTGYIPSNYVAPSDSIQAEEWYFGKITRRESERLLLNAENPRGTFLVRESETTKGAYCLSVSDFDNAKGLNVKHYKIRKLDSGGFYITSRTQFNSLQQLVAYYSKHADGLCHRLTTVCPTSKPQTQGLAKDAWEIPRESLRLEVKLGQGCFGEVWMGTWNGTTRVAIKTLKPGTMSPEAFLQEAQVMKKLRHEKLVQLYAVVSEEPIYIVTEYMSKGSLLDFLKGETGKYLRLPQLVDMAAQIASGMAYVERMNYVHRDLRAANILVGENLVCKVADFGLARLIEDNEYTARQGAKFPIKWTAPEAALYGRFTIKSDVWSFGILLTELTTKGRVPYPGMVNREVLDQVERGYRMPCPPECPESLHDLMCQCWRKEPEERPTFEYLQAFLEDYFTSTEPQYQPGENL

The IC50 is the concentration that gives 50% inhibition. Lower therefore signals greater potency. With `N=C(N)NCCC[C@@H](N)C(=O)N[C@H](CCCNC(=N)N)C(=O)N[C@H](CCCNC(=N)N)C(=O)N[C@H](CCCNC(=N)N)C(=O)N[C@H](CCCNC(=N)N)C(=O)N[C@H](CCCNC(=N)N)C(=O)N[C@H](CCCNC(=N)N)C(=O)N[C@H](CCCNC(=N)N)C(=O)N[C@H](CCCNC(=N)N)C(=O)N[C@H](CCCNC(=N)N)C(=O)N[C@H](CCCNC(=N)N)C(=O)N[C@H](CCCNC(=N)N)C(=O)N[C@H](CCCNC(=N)N)C(=O)N[C@H](CCCNC(=N)N)C(N)=O` [IKD01400, rrrrrrrrrrrrrr-NH2], the values for the IC50 against PKG1β (h), against c-Src (h) and at PKG1α (h) were 10 nM, 6 nM and 11 nM, respectively. In addition, the remaining at 1 h in data set [1] (pig, simulated gastric fluid with porcine pepsin, simulated gastric fluid pH 2.01, 1 hr, read-out: % of intact peptide observed) was 98.9%. Further, in data set [1] (pig, simulated gastric fluid with porcine pepsin, simulated gastric fluid pH 2.01, 4 hrs, read-out: % of intact peptide observed), the remaining at 4 h is 98.7%. In data set [1] (pig, simulated gastric fluid with porcine pepsin, simulated gastric fluid pH 2.01, 24 hrs, read-out: % of intact peptide observed), the remaining at 24 h is 97.5%. Moreover, the “% of intact peptide observed” value in data set [1] (simulated gastric fluid pH 2.01, time 0) is on record as 98.79%.

In the case of `CN1CC[C@]23c4c5ccc(O)c4O[C@H]2[C@@H](O)C=C[C@H]3[C@H]1C5` [morphine], in the data set with CFA-injected mice [2], the “grip strength compared to vehicle control” value is recorded as “increased grip strength”. Further, the “effectiveness in incapacitance test, morphine versus IK01400, pooled data” value in the data set with CFA-injected mice [3] (first 30 minutes after injection) was “more effective”. In addition, the hyperactivity entry with CFA-injected mice [3] (mice, intra-peritoneal) is reported as “observed to induce hyperactivity”. In addition, in the data set with CFA-injected mice [3] (second hour after administration), the “effectiveness in incapacitance test, morphine versus IK01400 (8.6 mg/kg)” value is “less effective than IK01400; also recorded: reduced”.

These data come from patent US20210000912A1, “Compositions And Methods For Prophylaxis Or Treatment Of Pain” (Interk Peptide Therapeutics Limited, priority 2017, published 2021).
